Data published in patent US11458123B2 (Arvinas, Inc., priority 2016, dated 2022).

Test system: tau protein
Test: Tau protein in vitro degradation assay (Western blot, Tau-13 antibody)
Type: cell-based, human
Conditions: SK-N-SH cells, 72 hours of incubation; for Degradation activity (tau protein remaining; highest amount of degradation observed at any dosage) / Degradation activity* (highest amount of degradation observed at any dosage; tau protein remaining): tested at 300 nM, 100 nM, 33 nM and 11 nM, Western blot, Tau-13 antibody; for Activity* (highest amount of degradation observed at any dosage, as tau protein remaining): tested at 1000 nM, 300 nM and 100 nM
In short: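 SK-N-SH cells, seeded ≥18 h beforehand, were incubated 72 h with tau PROTACs at 1000, 300 and 100 nM or at 300, 100, 33 and 11 nM. Lysates in protease-inhibitor buffer were resolved by SDS-PAGE; tau quantified by Western blot with Tau-13 antibody recognising all human tau forms.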

Row | Structure (SMILES) | Degradation activity* (highest amount of degradation observed at any dosage; tau protein remaining) | further results
1 | Cn1c2ccncc2c2ccc(-c3ccc(O[C@H]4C[C@H](OCC56CC(COCCOCCOc7ccc8c(c7)C(=O)N(C7CCC(=O)NC7=O)C8=O)(C5)C6)C4)nc3)cc21 (stereo partly shown) [Compound 209, 2-(2,6-dioxopiperidin-3-yl)-5-(2-(2-((3-(((1r,3r)-3-((5-(5-methyl-5H-pyrido[4,3-b]indol-7-yl)pyridin-2-yl)oxy)cyclobutoxy)methyl)bicyclo[1.1.1]pentan-1-yl)methoxy)ethoxy)ethoxy)isoindoline-1,3-dione] | – | Degradation activity (tau protein remaining; highest amount of degradation observed at any dosage): A (≤50% tau protein remaining after 72 hours of incubation with the test compound)
2 | Cn1c2ccncc2c2ccc(-c3ccc(O[C@H]4C[C@H](OC5CCN(CC(F)(F)CCCOc6ccc7c(c6)C(=O)N(C6CCC(=O)NC6=O)C7=O)CC5)C4)nc3)cc21 (stereo partly shown) [Compound 171, 5-((4,4-difluoro-5-(4-((1r,3r)-3-((5-(5-methyl-5H-pyrido[4,3-b]indol-7-yl)pyridin-2-yl)oxy)cyclobutoxy)piperidin-1-yl)pentyl)oxy)-2-(2,6-dioxopiperidin-3-yl)isoindoline-1,3-dione] | – | Degradation activity (tau protein remaining; highest amount of degradation observed at any dosage): C (>80% tau protein remaining after 72 hours of incubation with the test compound)
3 | Cn1c2ccncc2c2ccc(-c3ccc(O[C@H]4C[C@H](OCCCCCCOC(C5CN(c6ccc7c(c6)C(=O)N(C6CCC(=O)NC6=O)C7=O)C5)C(F)(F)F)C4)nc3)cc21 (stereo partly shown) [Compound 154, 2-(2,6-dioxopiperidin-3-yl)-5-(3-(2,2,2-trifluoro-1-((6-((1r,3r)-3-((5-(5-methyl-5H-pyrido[4,3-b]indol-7-yl)pyridin-2-yl)oxy)cyclobutoxy)hexyl)oxy)ethyl)azetidin-1-yl)isoindoline-1,3-dione] | C (>80% tau protein remaining after 72 hours of incubation with the test compound) | –
4 | Cc1ncsc1-c1ccc([C@H](C)NC(=O)[C@@H]2C[C@@H](O)CN2C(=O)[C@@H](NC(=O)COCCOCCOc2ccc3nc(-c4ccc(N(C)C)cc4)ccc3c2)C(C)(C)C)cc1 [Compound 28, (2S,4R)-1-((S)-2-(2-(2-(2-(2-(4-(dimethylamino)phenyl)quinolin-6-yloxy)ethoxy)ethoxy)acetamido)-3,3-dimethylbutanoyl)-4-hydroxy-N—((S)-1-(4-(4-methylthiazol-5-yl)phenyl)ethyl)pyrrolidine-2-carboxamide] | – | Activity* (highest amount of degradation observed at any dosage, as tau protein remaining): C (>80% tau protein remaining after 72 hours of incubation with the test compound)
5 | Cc1ncsc1-c1ccc([C@H](C)NC(=O)[C@@H]2C[C@@H](O)CN2C(=O)[C@@H](NC(=O)COCCOCCOCC(=O)N2CCN(c3ccn4c(n3)nc3ccccc34)CC2)C(C)(C)C)cc1 [Compound 17, (2S,4R)-1-((S)-14-(4-(benzo[4,5]imidazo[1,2-a]pyrimidin-2-yl)piperazin-1-yl)-2-(tert-butyl)-4,14-dioxo-6,9,12-trioxa-3-azatetradecanoyl)-4-hydroxy-N—((S)-1-(4-(4-methylthiazol-5-yl)phenyl)ethyl)pyrrolidine-2-carboxamide] | – | Activity* (highest amount of degradation observed at any dosage, as tau protein remaining): C (>80% tau protein remaining after 72 hours of incubation with the test compound)
6 | Cn1c2ccncc2c2ccc(-c3cnc(O[C@H]4C[C@H](Oc5ccc(C#CCOC6CN(c7ccc8c(c7)C(=O)N(C7CCC(=O)NC7=O)C8=O)C6)nc5)C4)c(C(F)(F)F)c3)cc21 (stereo partly shown) [Compound 118, 2-(2,6-dioxopiperidin-3-yl)-5-(3-((3-(5-((1r,3r)-3-((5-(5-methyl-5H-pyrido[4,3-b]indol-7-yl)-3-(trifluoromethyl)pyridin-2-yl)oxy)cyclobutoxy)pyridin-2-yl)prop-2-yn-1-yl)oxy)azetidin-1-yl)isoindoline-1,3-dione] | C (>80% tau protein remaining after 72 hours of incubation with the test compound) | –
7 | Cn1c2ccncc2c2ccc(-c3ccc(OCCOCCOCCOCCOCCOCCOCCOc4ccc5c(c4)C(=O)N(C4CCC(=O)NC4=O)C5=O)nc3)cc21 (stereo not shown) [Compound 132, 2-(2,6-dioxopiperidin-3-yl)-5-((20-((5-(5-methyl-5H-pyrido[4,3-b]indol-7-yl)pyridin-2-yl)oxy)-3,6,9,12,15,18-hexaoxaicosyl)oxy)isoindoline-1,3-dione] | A (≤50% tau protein remaining after 72 hours of incubation with the test compound) | –
8 | Cn1c2ccncc2c2ccc(-c3ccc(OCCCCCOCCCCCC4CCN(c5ccc6c(c5)C(=O)N(C5CCC(=O)NC5=O)C6=O)CC4)nc3)cc21 (stereo not shown) [Compound 75, 2-(2,6-dioxopiperidin-3-yl)-5-(4-(5-((5-((5-(5-methyl-5H-pyrido[4,3-b]indol-7-yl)pyridin-2-yl)oxy)pentyl)oxy)pentyl)piperidin-1-yl)isoindoline-1,3-dione] | C (>80% tau protein remaining after 72 hours of incubation with the test compound) | –
9 | Cn1c2ccncc2c2ccc(-c3ccc(O[C@H]4C[C@@H](Oc5ccc(C#CCOC6CN(c7ccc8c(c7)C(=O)N(C7CCC(=O)NC7=O)C8=O)C6)nc5)C4)nc3)cc21 (stereo partly shown) [Compound 159, 2-(2,6-dioxopiperidin-3-yl)-5-(3-((3-(5-((1 s,3 s)-3-((5-(5-methyl-5H-pyrido[4,3-b]indol-7-yl)pyridin-2-yl)oxy)cyclobutoxy)pyridin-2-yl)prop-2-yn-1-yl)oxy)azetidin-1-yl)isoindoline-1,3-dione] | C (>80% tau protein remaining after 72 hours of incubation with the test compound) | –
10 | O=C1CCC(N2C(=O)c3cccc(NCCOCCOCCOCC(=O)N4CCN(c5ccn6c(n5)nc5ccccc56)CC4)c3C2=O)C(=O)N1 (stereo not shown) [Compound 41, 4-((2-(2-(2-(2-(4-(benzo[4,5]imidazo[1,2-a]pyrimidin-2-yl)piperazin-1-yl)-2-oxoethoxy)ethoxy)ethoxy)ethyl)amino)-2-(2,6-dioxopiperidin-3-yl)isoindoline-1,3-dione] | – | Activity* (highest amount of degradation observed at any dosage, as tau protein remaining): C (>80% tau protein remaining after 72 hours of incubation with the test compound)
11 | Cc1ncsc1-c1ccc(CNC(=O)[C@@H]2C[C@@H](O)CN2C(=O)[C@H](C(C)C)N2Cc3ccccc3C2=O)c(OCCOCCOCCOCCOCCOc2ccc(-c3ccc4c(c3)[nH]c3ccncc34)cn2)c1 [Compound 201, (2S,4R)—N-(2-((14-((5-(5H-pyrido[4,3-b]indol-7-yl)pyridin-2-yl)oxy)-3,6,9,12-tetraoxatetradecyl)oxy)-4-(4-methylthiazol-5-yl)benzyl)-4-hydroxy-1-((S)-3-methyl-2-(1-oxoisoindolin-2-yl)butanoyl)pyrrolidine-2-carboxamide] | – | Degradation activity (tau protein remaining; highest amount of degradation observed at any dosage): C (>80% tau protein remaining after 72 hours of incubation with the test compound)
12 | Cc1ncsc1-c1ccc(CNC(=O)[C@@H]2C[C@@H](O)CN2C(=O)[C@@H](NC(=O)COCCOCCOCC(O)COc2ccc3nc(-c4ccc(N(C)C)cc4)ccc3c2)C(C)(C)C)cc1 (stereo partly drawn) [Compound 43, (2S,4R)-1-((2S)-2-(tert-butyl)-15-((2-(4-(dimethylamino)phenyl)quinolin-6-yl)oxy)-14-hydroxy-4-oxo-6,9,12-trioxa-3-azapentadecanoyl)-4-hydroxy-N-(4-(4-methylthiazol-5-yl)benzyl)pyrrolidine-2-carboxamide] | – | Activity* (highest amount of degradation observed at any dosage, as tau protein remaining): C (>80% tau protein remaining after 72 hours of incubation with the test compound)
13 | Cn1c2ccncc2c2ccc(-c3ccc(O[C@H]4C[C@H](OCCCCCCOCC5CN(c6ccc7c(c6)C(=O)N(C6CCC(=O)NC6=O)C7=O)C5)C4)nc3)cc21 (stereo partly shown) [Compound 178, 2-(2,6-dioxopiperidin-3-yl)-5-(3-(((6-((1r,3r)-3-((5-(5-methyl-5H-pyrido[4,3-b]indol-7-yl)pyridin-2-yl)oxy)cyclobutoxy)hexyl)oxy)methyl)azetidin-1-yl)isoindoline-1,3-dione] | – | Degradation activity (tau protein remaining; highest amount of degradation observed at any dosage): A (≤50% tau protein remaining after 72 hours of incubation with the test compound)
14 | Cn1c2ccncc2c2ccc(-c3ccc(OCCCCCOCCCCCN4CC(Oc5ccc6c(c5)C(=O)N(C5CCC(=O)NC5=O)C6=O)C4)nc3)cc21 (stereo not shown) [Compound 80, 2-(2,6-dioxopiperidin-3-yl)-5-((1-(5-((5-((5-(5-methyl-5H-pyrido[4,3-b]indol-7-yl)pyridin-2-yl)oxy)pentyl)oxy)pentyl)azetidin-3-yl)oxy)isoindoline-1,3-dione] | A (≤50% tau protein remaining after 72 hours of incubation with the test compound) | –
15 | O=C1CCC(N2C(=O)c3cnc(OCCOCCOCCOCCOCCOc4ccc(-c5ccc6c(c5)[nH]c5ccncc56)cn4)cc3C2=O)C(=O)N1 (stereo not shown) [Compound 87, 6-((14-((5-(5H-pyrido[4,3-b]indol-7-yl)pyridin-2-yl)oxy)-3,6,9,12-tetraoxatetradecyl)oxy)-2-(2,6-dioxopiperidin-3-yl)-1H-pyrrolo[3,4-c]pyridine-1,3 (2H)-dione] | C (>80% tau protein remaining after 72 hours of incubation with the test compound) | –
16 | Cn1c2ccncc2c2ccc(-c3ccc(O[C@H]4C[C@H](Oc5ccc(C#CCOc6ccc7c(c6)C(=O)N(C6CCC(=O)NC6=O)C7=O)nc5)C4)nc3)cc21 (stereo partly shown) [Compound 117, 2-(2,6-dioxopiperidin-3-yl)-5-((3-(5-((1r,3r)-3-((5-(5-methyl-5H-pyrido[4,3-b]indol-7-yl)pyridin-2-yl)oxy)cyclobutoxy)pyridin-2-yl)prop-2-yn-1-yl)oxy)isoindoline-1,3-dione] | C (>80% tau protein remaining after 72 hours of incubation with the test compound) | –
